Data on three compounds can be found in patent US20170340648A1, “Pharmaceutical Compositions Affecting Bioenergetic Processes in a Eukaryotic Biological System and Methods of Treatment” (JOYCE BIOTECH CORP., priority 2016, published 2017).

Molecules are shown by their SMILES. Entries after “also recorded” stand apart in the source; their conditions may differ.

For data set [1] the following is noted: rat, in vivo; cited from earlier work.
In data set [2] the test system is C2C12 murine myoblasts. The class given is cell-based.
Procedure: In the experiment, immortalized murine C2C12 myoblast cells were exposed to various pre-assay growth conditions prior to being seeded into a Seahorse XF24 Extracellular Flux Analyzer cell culture plate. The basal oxygen consumption (OCR) and extracellular acidification (ECAR) rates were measured to establish baseline metabolic rates for each experimental culture condition. The cells were then metabolically perturbed by the successive addition of three different compounds that shift the bioenergetic profile of the cell.
The first compound added following the collection of baseline metabolic data was oligomycin.
The second agent injected, carbonyl cyanide-p-trifluoromethoxyphenylhydrazone (FCCP), is an ionophore that is a mobile ion carrier.
Rotenone, a Complex I inhibitor, is the third agent injected in sequence, it prevents the transfer of electrons from the Fe—S center in Complex I to ubiquinone (Coenzyme Q).
Rotenone exposure inhibits mitochondrial respiration and enables both the mitochondrial and non-mitochondrial fractions contributing to respiration to be calculated.
Statistical analysis was conducted via two-tailed Mann-Whitney U test of variance. U and P values were calculated using algorithms supplied by the Meta Numerics and ALGLIB statistical libraries. During calculations, when the value of N (the number of scores) was equal to or greater than 10, it was assumed that the sampling distribution was approximately normal, and a Z-ratio was also employed to calculate the value of P. The threshold for significance was set at P≦to 0.05 (Table 27A1 to Table 27F2).
C2C12 murine myoblast cells were placed into pre-assay growth condition categories and cultured for 24 hours.
CSC12 murine myoblast cells were seeded into a Seahorse XF24 24 well culture plate at a density of 10,000 cells/well in 100 microliters of Growth Medium.
The seeded XF24 culture plates were placed into a 37 degree Centigrade incubator at 10% CO2 for 24 hours. […]
Data set [3] concerns glucocorticoid receptors. The settings on record: cultured cells; cited from earlier work.

As to `O=CC[C@@H](O)[C@H](O)[C@H](O)CO` [2-Deoxy-d-Glucose], the cardiac toxicity entry in data set [1] is given as “cardiotoxicity”.

For `C=C(C)[C@H]1Cc2c(ccc3c2O[C@@H]2COc4cc(OC)c(OC)cc4[C@@H]2C3=O)O1` [Rotenone], the “oxygen consumption rate (OCR) relative to Control condition” value in data set [2] (24 h pre-assay incubation for compositions, Rotenone 2.0 μM injected, basal and FCCP conditions) was “significantly reduced; also recorded: decreased”. Also, the “anaerobic metabolic activity as indicated by extracellular acidification rate (ECAR) relative to untreated control” value in data set [2] (basal, Met/Mife 25 uM/50 uM (Table 27A1), MET/KET 1 mM/50 uM (Table 27F3), Rotenone 2.0 μM) is reported as “increased”.

`CC(=O)N1CCN(c2ccc(OCC3COC(Cn4ccnc4)(c4ccc(Cl)cc4Cl)O3)cc2)CC1` (stereo not shown) [ketoconazole]: in data set [3], the glucocorticoid receptor activity result is given as “antagonist”.
